Assays:
[1] = tested on: Spodoptera littoralis; assay: Spodoptera littoralis (Egyptian cotton leaf worm) cotton leaf disc spray test; format: in vivo; details: foliar, 72 h, application rate of 200 ppm, L1 larvae, 3 days after infestation, read-out: control (at least one of mortality, anti-feedant effect, growth inhibition)
Procedure: Example B1: Spodoptera littoralis (Egyptian Cotton Leaf Worm)
Cotton leaf discs were placed on agar in 24-well microtiter plates and sprayed with aqueous test solutions prepared from 10,000 ppm DMSO stock solutions. After drying, the leaf discs were infested with five L1 larvae. The samples were assessed for mortality, anti-feedant effect, and growth inhibition in comparison to untreated samples 3 days after infestation. Control of Spodoptera littoralis by a test sample is when at least one of mortality, anti-feedant effect, and growth inhibition is higher than the untreated sample.

[2] = tested on: Plutella Xylostella; assay: Plutella xylostella (diamond back moth) artificial diet test; format: in vivo; details: 120 h, application rate of 200 ppm, L2 larvae, 5 days after infestation, read-out: effect in at least one of the two categories (mortality or growth inhibition)
Procedure: Example B2: Plutella Xylostella (Diamond Back Moth)
(§1) 24-well microtiter plates with artificial diet were treated with aqueous test solutions prepared from 10,000 ppm DMSO stock solutions by pipetting. After drying, the plates were infested with L2 larvae (10 to 15 per well). The samples were assessed for mortality and growth inhibition in comparison to untreated samples 5 days after infestation.
The following compounds gave an effect of at least 80% in at least one of the two categories (mortality or growth inhibition) at an application rate of 200 ppm: P1, P2, P3, P5, P10, P11, P14 and P20.

[3] = tested on: Diabrotica Balteata; assay: Diabrotica balteata (corn root worm) maize sprout test; format: in vivo; details: 96 h, application rate of 200 ppm, L2 larvae, 4 days after infestation, read-out: effect in at least one of the two categories (mortality or growth inhibition)
Procedure: Example B3: Diabrotica Balteata (Corn Root Worm)
as §1, with “Maize sprouts, placed on an agar layer in 24-well” for “24-well”, “plates” for “plates with artificial diet”, “spraying.” for “pipetting.”, “(6” for “(10”, “10” for “15”, “4” for “5”
The following compounds gave an effect of at least 80% in at least one of the two categories (mortality or growth inhibition) at an application rate of 200 ppm: P1, P2, P3, P4, P5, P10 and P14.

[4] = tested on: Tetranychus Urticae; assay: Tetranychus urticae (two-spotted spider mite) feeding/contact activity on bean leaf discs; format: in vivo; details: foliar, 192 h, application rate of 200 ppm, mixed population (mobile stages), 8 days after infestation
Procedure: Example B4: Tetranychus Urticae (Two-Spotted Spider Mite) (Feeding/Contact Activity)
Bean leaf discs on agar in 24-well microtiter plates were sprayed with aqueous test solutions prepared from 10′000 ppm DMSO stock solutions. After drying the leaf discs were infested with a mite population of mixed ages. The samples were assessed for mortality on mixed population (mobile stages) 8 days after infestation.

melting point [°C] | Compound | percent effect (mortality or growth inhibition) at 200 ppm [2] [%] | further results
179 to 180 | O=C(Nc1ccccc1C(F)(F)F)O/N=C/c1ccc(-c2ncn(-c3ccc(OC(F)(F)F)cc3)n2)cc1 |  | 
174 to 180 | O=C(Nc1ccccc1)O/N=C/c1ccc(-c2ncn(-c3ccc(OC(F)(F)F)cc3)n2)cc1 |  | 
179 to 182 | O=C(Nc1ccc(Cl)cc1Cl)O/N=C/c1ccc(-c2ncn(-c3ccc(OC(F)(F)F)cc3)n2)cc1 |  | 
183 to 184 | O=C(Nc1ccccc1Cl)O/N=C/c1ccc(-c2ncn(-c3ccc(OC(F)(F)F)cc3)n2)cc1 |  | 
182 to 183 | COc1ccccc1NC(=O)O/N=C/c1ccc(-c2ncn(-c3ccc(OC(F)(F)F)cc3)n2)cc1 |  | 
197 to 198 | O=C(Nc1cscc1Br)O/N=C/c1ccc(-c2ncn(-c3ccc(OC(F)(F)F)cc3)n2)cc1 |  | 
93 to 130 | CC(C)c1ccccc1NC(=O)O/N=C/c1ccc2c(c1)nc(-c1ccc(OC(F)(F)F)cc1)n2C |  | 
98 to 130 | CC(C)c1ccccc1NC(=O)O/N=C/c1ccc2nc(-c3ccc(OC(F)(F)F)cc3)n(C)c2c1 |  | 
68 to 124 | Cc1cccc(C)c1NC(=O)O/N=C/c1ccc2nc(-c3ccc(OC(F)(F)F)cc3)n(C)c2c1 |  | 
68 to 124 | Cc1cccc(C)c1NC(=O)O/N=C/c1ccc2c(c1)nc(-c1ccc(OC(F)(F)F)cc1)n2C |  | 
247 to 248 | Cc1cccc(C)c1NC(=O)O/N=C/c1ccc2c(c1)C(=O)N(c1ccc(OC(F)(F)F)cc1)C2=O |  | 
170 to 171 | CC/C(=N\OC(=O)Nc1ccccc1C(C)C)c1ccc(-c2ncn(-c3ccc(OC(F)(F)F)cc3)n2)cc1 |  | 
151 to 154 | CC/C(=N\OC(=O)Nc1ccccc1C(F)(F)F)c1ccc(-c2ncn(-c3ccc(OC(F)(F)F)cc3)n2)cc1 |  | 
 | CC(C)c1ccccc1NC(=O)O/N=C\c1ccc(-c2ncn(-c3ccc(OC(F)(F)F)cc3)n2)cc1 (single isomer, unassigned) [Compound P1, [(Z)-[4-[1-[4-(trifluoromethoxy)phenyl]-1,2,4-triazol-3-yl]phenyl]methyleneamino] N-(2-isopropylphenyl) carbamate] | ≥ 80 | percent control (mortality, anti-feedant effect or growth inhibition) at 200 ppm [1]: ≥ 80%; percent effect (mortality or growth inhibition) at 200 ppm [3]: ≥ 80%
 | CC(C)c1ccccc1NC(=O)O/N=C/c1ccc(-c2ncn(-c3ccc(OC(F)(F)F)cc3)n2)cc1 (single isomer, unassigned) [Compound P2, [(E)-[4-[1-[4-(trifluoromethoxy)phenyl]-1,2,4-triazol-3-yl]phenyl]methyleneamino] N-(2-isopropylphenyl) carbamate] | ≥ 80 | percent control (mortality, anti-feedant effect or growth inhibition) at 200 ppm [1]: ≥ 80%; percent effect (mortality or growth inhibition) at 200 ppm [3]: ≥ 80%
 | C/C(=N\OC(=O)Nc1ccccc1C(C)C)c1ccc(-c2ncn(-c3ccc(OC(F)(F)F)cc3)n2)cc1 [Compound P3] | ≥ 80 | percent effect (mortality or growth inhibition) at 200 ppm [3]: ≥ 80%
 | C/C(=N\OC(=O)Nc1ccccc1C(F)(F)F)c1ccc(-c2ncn(-c3ccc(OC(F)(F)F)cc3)n2)cc1 [Compound P4, [1-[4-[1-[4-(trifluoromethoxy)phenyl]-1,2,4-triazol-3-yl]phenyl]ethylideneamino]N-[2-(trifluoromethyl)phenyl]carbamate] |  | percent effect (mortality or growth inhibition) at 200 ppm [3]: ≥ 80%
 | C/C(=N\OC(=O)Nc1c(C)cccc1C)c1ccc(-c2ncn(-c3ccc(OC(F)(F)F)cc3)n2)cc1 [Compound P5] | ≥ 80 | percent control (mortality, anti-feedant effect or growth inhibition) at 200 ppm [1]: ≥ 80%; percent effect (mortality or growth inhibition) at 200 ppm [3]: ≥ 80%
 | CC/C(=N\OC(=O)Nc1c(C)cccc1C)c1ccc(-c2ncn(-c3ccc(OC(F)(F)F)cc3)n2)cc1 [Compound P10] | ≥ 80 | percent control (mortality, anti-feedant effect or growth inhibition) at 200 ppm [1]: ≥ 80%; percent effect (mortality or growth inhibition) at 200 ppm [3]: ≥ 80%
 | Cc1cccc(C)c1NC(=O)O/N=C/CCc1ccc(-c2ncn(-c3ccc(OC(F)(F)F)cc3)n2)cc1 [Compound P11] | ≥ 80 | 
 | Cc1cccc(C)c1NC(=O)O/N=C/c1ccc(-c2ncn(-c3ccc(OC(F)(F)F)cc3)n2)cc1 [Compound P14] | ≥ 80 | percent effect (mortality or growth inhibition) at 200 ppm [3]: ≥ 80%
 | Cc1cccc(C)c1NC(=O)O/N=C/c1ccc2sc(-c3ccc(OC(F)(F)F)cc3)nc2c1 [Compound P17] |  | percent control (mortality, anti-feedant effect or growth inhibition) at 200 ppm [1]: ≥ 80%
 | Cc1cc(NC(=O)O/N=C/c2ccc(-c3ncn(-c4ccc(OC(F)(F)F)cc4)n3)cc2)c(C(F)(F)F)o1 [Compound P19] |  | mortality at 200 ppm [4]: ≥ 80%
 | O=C(Nc1ccc(Cl)nc1)O/N=C/c1ccc(-c2ncn(-c3ccc(OC(F)(F)F)cc3)n2)cc1 [Compound P20] | ≥ 80 | mortality at 200 ppm [4]: ≥ 80%; percent control (mortality, anti-feedant effect or growth inhibition) at 200 ppm [1]: ≥ 80%
